Results: US20100075926A1, “ACTIVATION OF HISTONE DEACETYLASE 1 (HDAC1) PROTECTS AGAINST DNA DAMAGE AND INCREASES NEURONAL SURVIVAL” (priority 2008, published 2010)

Biological target: T1, recombinant human HDAC8 (Homo sapiens, UniProt Q9BY41)
T1 sequence (Q9BY41 1-377): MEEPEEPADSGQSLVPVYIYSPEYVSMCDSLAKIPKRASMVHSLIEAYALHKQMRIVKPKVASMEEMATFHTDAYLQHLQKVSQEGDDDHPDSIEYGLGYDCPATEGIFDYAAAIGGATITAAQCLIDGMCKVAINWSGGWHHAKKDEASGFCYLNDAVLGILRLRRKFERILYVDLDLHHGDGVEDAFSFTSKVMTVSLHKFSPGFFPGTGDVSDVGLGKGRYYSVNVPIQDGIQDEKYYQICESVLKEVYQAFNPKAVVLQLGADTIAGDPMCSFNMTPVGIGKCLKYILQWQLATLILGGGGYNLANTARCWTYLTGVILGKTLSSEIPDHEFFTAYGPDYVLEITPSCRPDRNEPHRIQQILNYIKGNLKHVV
Experiment: Caliper mobility shift deacetylase assay, HDAC8
Format: biochemical
Conditions: at the indicated concentration (8-40 μM); avg. n = 2; relative to DMSO
Method: (§1) To identify small molecule activators of HDAC1, a diverse collection of 1,760 small molecules composed of synthetic compounds, natural products, and a subset of FDA approved drugs were arrayed in 384-well plates as ˜10 mM dimethylsulphoxide (DMSO) stocks. To identify modulators (both activators and inhibitors) of HDACs, a fluorescence-based assay that utilizes Caliper's mobility shift assay technology (Hopkinton, Mass.) was used. This assay is based on the electrophoretic separation of N-acetyl lysine peptide substrate from the deacetylated product, which bears an additional positive charge. […] The product and substrate in each independent reaction were separated using a microfluidic chip (Caliper Life Sciences) run on a Caliper LC3000 (Caliper Life Sciences). The product and substrate fluorophore were excited at 488 nm and detected at 530 nm. Substrate conversion was calculated from the electrophoregram using HTS Well Analyzer software (Caliper Life Sciences). Since the amount of converted substrate is measured, and the reactions were performed at the Km for each enzyme, it is possible to identify both inhibitors and activators of HDACs using this assay.
(§2) Using the mobility shift assay, all compounds were screened in duplicate using a panel of class I and class II HDACs and a N-acetyl lysine peptide substrate. For class I HDACs, HDAC1, HDAC2, and HDAC8 were used. For class IIb HDACs, HDAC6 and to HDAC10 were used. Compounds were incubated for 18-24 hrs and the percent inhibition (avg. n=2) relative to a solvent (DMSO) control treatment of each compound determined through measurement of substrate conversion.

Row | Compound | HDAC8 % activation of deacetylase activity
1 | CC1=NN(c2ccc(Br)cc2Br)C(=O)/C1=C(/C)NCc1ccccc1 [TAM-12] | 2%
2 | COC(=O)[C@H]1[C@H]2C[C@H]3c4[nH]c5ccccc5c4CCN3C[C@H]2CC[C@@H]1O [alpha-yohimbine] | 0%
3 | CC(=O)N(O)CCCCCNC(=O)CCC(=O)N(O)CCCCCNC(=O)CCC(=O)N(O)CCCCCN [deferoxamine] | 4%
4 | CC(C)=CCC[C@]1(C)C=Cc2c(O)c3c(c(CC=C(C)C)c2O1)O[C@]12C(=C[C@@H]4C[C@H]1C(C)(C)O[C@@]2(C/C=C(/C)C(=O)O)C4=O)C3=O [gambogic acid] | −8%
5 | COc1ccc(-c2cc(=O)c3c(O)cc(O)c(-c4cc(-c5cc(=O)c6c(O)cc(OC)cc6o5)ccc4OC)c3o2)cc1 [sciadopitysin] | 0%
6 | O=c1c(O)cc([C@H]2Oc3cc(O)cc(O)c3C[C@H]2O)cc2c([C@H]3Oc4cc(O)cc(O)c4C[C@H]3O)cc(O)c(O)c12 [theaflavin] | −10%
7 | ginkgetin K [genxgetin K] | −3%
8 | tetrahydrogamboic acid | −1%

Biological target: T2, recombinant human HDAC6 (Homo sapiens, UniProt Q9UBN7)
T2 sequence (Q9UBN7 1-1215): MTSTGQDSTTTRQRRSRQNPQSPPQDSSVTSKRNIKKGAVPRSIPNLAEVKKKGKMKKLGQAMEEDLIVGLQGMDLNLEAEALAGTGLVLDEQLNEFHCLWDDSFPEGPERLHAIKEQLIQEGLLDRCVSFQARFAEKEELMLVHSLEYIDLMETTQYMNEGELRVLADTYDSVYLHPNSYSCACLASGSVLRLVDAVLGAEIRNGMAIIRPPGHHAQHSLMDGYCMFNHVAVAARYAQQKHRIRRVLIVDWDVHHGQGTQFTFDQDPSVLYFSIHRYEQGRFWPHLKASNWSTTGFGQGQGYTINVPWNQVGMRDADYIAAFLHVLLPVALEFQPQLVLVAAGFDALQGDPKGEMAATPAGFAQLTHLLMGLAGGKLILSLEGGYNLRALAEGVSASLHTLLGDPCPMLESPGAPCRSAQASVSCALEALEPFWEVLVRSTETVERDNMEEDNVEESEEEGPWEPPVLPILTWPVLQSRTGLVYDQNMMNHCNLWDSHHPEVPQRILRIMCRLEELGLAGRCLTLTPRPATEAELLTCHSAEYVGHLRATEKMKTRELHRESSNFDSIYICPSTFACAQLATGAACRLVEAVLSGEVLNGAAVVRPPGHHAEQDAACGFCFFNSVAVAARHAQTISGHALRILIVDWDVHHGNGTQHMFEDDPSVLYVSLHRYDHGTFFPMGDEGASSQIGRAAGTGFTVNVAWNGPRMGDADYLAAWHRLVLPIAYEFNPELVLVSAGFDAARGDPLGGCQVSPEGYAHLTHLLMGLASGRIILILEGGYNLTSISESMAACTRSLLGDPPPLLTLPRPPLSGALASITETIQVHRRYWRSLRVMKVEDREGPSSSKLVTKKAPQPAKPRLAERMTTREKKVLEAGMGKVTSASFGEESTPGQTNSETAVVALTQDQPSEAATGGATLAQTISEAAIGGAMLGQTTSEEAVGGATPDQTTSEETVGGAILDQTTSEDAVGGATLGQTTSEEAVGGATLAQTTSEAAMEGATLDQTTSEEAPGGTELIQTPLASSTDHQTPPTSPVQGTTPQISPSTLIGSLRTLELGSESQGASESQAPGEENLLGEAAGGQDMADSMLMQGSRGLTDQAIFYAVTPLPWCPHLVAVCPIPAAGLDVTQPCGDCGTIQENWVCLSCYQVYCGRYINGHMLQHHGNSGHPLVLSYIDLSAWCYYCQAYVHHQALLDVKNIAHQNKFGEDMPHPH
Experiment: Caliper mobility shift deacetylase assay, HDAC6
Format: biochemical
Conditions: at the indicated concentration (8-40 μM); avg. n = 2; relative to DMSO
Method: as §1, §2

Row | Compound | HDAC6 % activation of deacetylase activity
9 | CC1=NN(c2ccc(Br)cc2Br)C(=O)/C1=C(/C)NCc1ccccc1 [TAM-12] | −4%
10 | COC(=O)[C@H]1[C@H]2C[C@H]3c4[nH]c5ccccc5c4CCN3C[C@H]2CC[C@@H]1O [alpha-yohimbine] | −2%
11 | CC(=O)N(O)CCCCCNC(=O)CCC(=O)N(O)CCCCCNC(=O)CCC(=O)N(O)CCCCCN [deferoxamine] | −5%
12 | CC(C)=CCC[C@]1(C)C=Cc2c(O)c3c(c(CC=C(C)C)c2O1)O[C@]12C(=C[C@@H]4C[C@H]1C(C)(C)O[C@@]2(C/C=C(/C)C(=O)O)C4=O)C3=O [gambogic acid] | −63%
13 | COc1ccc(-c2cc(=O)c3c(O)cc(O)c(-c4cc(-c5cc(=O)c6c(O)cc(OC)cc6o5)ccc4OC)c3o2)cc1 [sciadopitysin] | −5%
14 | O=c1c(O)cc([C@H]2Oc3cc(O)cc(O)c3C[C@H]2O)cc2c([C@H]3Oc4cc(O)cc(O)c4C[C@H]3O)cc(O)c(O)c12 [theaflavin] | −79%
15 | ginkgetin K [genxgetin K] | −18%
16 | tetrahydrogamboic acid | −10%

Biological target: T3, recombinant human HDAC1 (Homo sapiens, UniProt Q13547)
T3 construct: purchased BPS Biosciences
Experiment: Caliper mobility shift deacetylase assay, HDAC1
Format: biochemical
Conditions: at the indicated concentration (8-40 μM); avg. n = 2; relative to DMSO
Description: (§3) Values indicate % deacetylase inhibition (avg. n=2) relative to a solvent (DMSO) control treatment measured using recombinant human HDAC1 or HDAC2 and Caliper's mobility shift assay technology. Circle color corresponds to compounds shaded by degree of HDAC1 activity (red, decreased; blue, increased). (A) Complete dataset with box outlined with the red dashes corresponding to the region shown highlighted in (B), which in the assay corresponds to negative inhibition.
as §1
(§4) Using the mobility shift assay, all compounds were screened in duplicate using a panel of class I and class II HDACs and a N-acetyl lysine peptide substrate. For class I HDACs, HDAC1, HDAC2, and HDAC8 were used. For class IIb HDACs, HDAC6 and to HDAC10 were used. Compounds were incubated for 18-24 hrs and the percent inhibition (avg. n=2) relative to a solvent (DMSO) control treatment of each compound determined through measurement of substrate conversion. […] FIG. 11 provides a list of all of the structures that activated HDAC1 by a value of 5% or greater.

T3 sequence (Q13547 whole entry): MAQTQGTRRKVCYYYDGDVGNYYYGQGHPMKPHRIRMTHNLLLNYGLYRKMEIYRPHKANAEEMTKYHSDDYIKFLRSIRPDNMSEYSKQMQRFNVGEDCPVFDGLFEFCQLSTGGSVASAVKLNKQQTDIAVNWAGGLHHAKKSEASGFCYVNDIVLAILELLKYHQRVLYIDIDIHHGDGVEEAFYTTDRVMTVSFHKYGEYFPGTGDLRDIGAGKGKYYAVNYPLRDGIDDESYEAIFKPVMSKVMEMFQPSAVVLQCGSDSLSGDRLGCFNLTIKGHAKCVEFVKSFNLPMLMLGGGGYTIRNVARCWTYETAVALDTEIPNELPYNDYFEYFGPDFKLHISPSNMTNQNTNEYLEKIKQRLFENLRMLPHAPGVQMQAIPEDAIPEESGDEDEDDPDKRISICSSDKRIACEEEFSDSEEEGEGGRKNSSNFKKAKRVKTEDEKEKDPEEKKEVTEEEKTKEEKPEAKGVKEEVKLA

Row | Compound | HDAC1 % activation of deacetylase activity
17 | CC1=NN(c2ccc(Br)cc2Br)C(=O)/C1=C(/C)NCc1ccccc1 [TAM-12] | 5%
18 | COC(=O)[C@H]1[C@H]2C[C@H]3c4[nH]c5ccccc5c4CCN3C[C@H]2CC[C@@H]1O [alpha-yohimbine] | 5%
19 | CC(=O)N(O)CCCCCNC(=O)CCC(=O)N(O)CCCCCNC(=O)CCC(=O)N(O)CCCCCN [deferoxamine] | 8%
20 | CC(C)=CCC[C@]1(C)C=Cc2c(O)c3c(c(CC=C(C)C)c2O1)O[C@]12C(=C[C@@H]4C[C@H]1C(C)(C)O[C@@]2(C/C=C(/C)C(=O)O)C4=O)C3=O [gambogic acid] | 22%
21 | COc1ccc(-c2cc(=O)c3c(O)cc(O)c(-c4cc(-c5cc(=O)c6c(O)cc(OC)cc6o5)ccc4OC)c3o2)cc1 [sciadopitysin] | 19%
22 | O=c1c(O)cc([C@H]2Oc3cc(O)cc(O)c3C[C@H]2O)cc2c([C@H]3Oc4cc(O)cc(O)c4C[C@H]3O)cc(O)c(O)c12 [theaflavin] | 5%
23 | ginkgetin K [genxgetin K] | 42%
24 | tetrahydrogamboic acid | 11%

Biological target: T4, recombinant human HDAC10 (Homo sapiens, UniProt Q969S8)
T4 sequence (Q969S8 1-669): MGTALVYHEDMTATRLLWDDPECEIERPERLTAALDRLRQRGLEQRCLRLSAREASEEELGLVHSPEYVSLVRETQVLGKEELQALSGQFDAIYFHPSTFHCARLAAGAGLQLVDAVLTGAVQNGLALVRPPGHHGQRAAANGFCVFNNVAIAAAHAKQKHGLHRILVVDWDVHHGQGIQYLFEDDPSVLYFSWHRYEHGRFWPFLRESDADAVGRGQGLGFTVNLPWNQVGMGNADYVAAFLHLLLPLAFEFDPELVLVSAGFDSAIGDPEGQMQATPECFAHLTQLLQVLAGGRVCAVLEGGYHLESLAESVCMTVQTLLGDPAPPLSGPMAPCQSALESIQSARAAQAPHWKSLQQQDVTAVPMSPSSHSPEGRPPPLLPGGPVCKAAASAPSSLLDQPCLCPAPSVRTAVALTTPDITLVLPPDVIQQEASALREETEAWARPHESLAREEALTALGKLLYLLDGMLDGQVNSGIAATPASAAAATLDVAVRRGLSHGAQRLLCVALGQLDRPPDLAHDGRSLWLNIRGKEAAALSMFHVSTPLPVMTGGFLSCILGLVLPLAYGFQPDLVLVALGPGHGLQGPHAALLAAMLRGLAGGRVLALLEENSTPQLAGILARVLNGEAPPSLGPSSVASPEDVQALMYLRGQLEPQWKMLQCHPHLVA
Experiment: Caliper mobility shift deacetylase assay, HDAC10
Format: biochemical
Conditions: at the indicated concentration (8-40 μM); avg. n = 2; relative to DMSO
Method: as §1, §2

Row | Compound | HDAC10 % activation of deacetylase activity
25 | CC1=NN(c2ccc(Br)cc2Br)C(=O)/C1=C(/C)NCc1ccccc1 [TAM-12] | −3%
26 | COC(=O)[C@H]1[C@H]2C[C@H]3c4[nH]c5ccccc5c4CCN3C[C@H]2CC[C@@H]1O [alpha-yohimbine] | 1%
27 | CC(=O)N(O)CCCCCNC(=O)CCC(=O)N(O)CCCCCNC(=O)CCC(=O)N(O)CCCCCN [deferoxamine] | 2%
28 | CC(C)=CCC[C@]1(C)C=Cc2c(O)c3c(c(CC=C(C)C)c2O1)O[C@]12C(=C[C@@H]4C[C@H]1C(C)(C)O[C@@]2(C/C=C(/C)C(=O)O)C4=O)C3=O [gambogic acid] | 13%
29 | COc1ccc(-c2cc(=O)c3c(O)cc(O)c(-c4cc(-c5cc(=O)c6c(O)cc(OC)cc6o5)ccc4OC)c3o2)cc1 [sciadopitysin] | 19%
30 | O=c1c(O)cc([C@H]2Oc3cc(O)cc(O)c3C[C@H]2O)cc2c([C@H]3Oc4cc(O)cc(O)c4C[C@H]3O)cc(O)c(O)c12 [theaflavin] | 0%
31 | ginkgetin K [genxgetin K] | 56%
32 | tetrahydrogamboic acid | 13%

Biological target: T5, recombinant human HDAC2 (Homo sapiens, UniProt Q92769)
T5 construct: purchased BPS Biosciences
Experiment: Caliper mobility shift deacetylase assay, HDAC2
Format: biochemical
Conditions: at the indicated concentration (8-40 μM); avg. n = 2; relative to DMSO
Description: as §3, §1, §4

T5 sequence (Q92769 whole entry): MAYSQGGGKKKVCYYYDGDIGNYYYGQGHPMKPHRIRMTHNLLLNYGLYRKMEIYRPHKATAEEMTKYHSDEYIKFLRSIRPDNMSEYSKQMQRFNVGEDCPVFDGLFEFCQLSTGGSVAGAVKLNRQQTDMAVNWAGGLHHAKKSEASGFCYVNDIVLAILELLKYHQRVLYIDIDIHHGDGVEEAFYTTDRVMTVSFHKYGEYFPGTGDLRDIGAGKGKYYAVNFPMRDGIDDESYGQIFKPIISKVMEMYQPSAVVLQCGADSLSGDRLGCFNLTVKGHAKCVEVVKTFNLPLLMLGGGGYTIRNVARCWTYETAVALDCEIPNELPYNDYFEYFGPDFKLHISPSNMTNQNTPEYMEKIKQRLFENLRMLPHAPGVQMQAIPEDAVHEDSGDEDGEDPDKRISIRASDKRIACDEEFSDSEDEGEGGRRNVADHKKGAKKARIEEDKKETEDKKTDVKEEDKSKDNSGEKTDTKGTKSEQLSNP

Row | Compound | HDAC2 % activation of deacetylase activity
33 | CC1=NN(c2ccc(Br)cc2Br)C(=O)/C1=C(/C)NCc1ccccc1 [TAM-12] | −1%
34 | COC(=O)[C@H]1[C@H]2C[C@H]3c4[nH]c5ccccc5c4CCN3C[C@H]2CC[C@@H]1O [alpha-yohimbine] | −5%
35 | CC(=O)N(O)CCCCCNC(=O)CCC(=O)N(O)CCCCCNC(=O)CCC(=O)N(O)CCCCCN [deferoxamine] | −3%
36 | CC(C)=CCC[C@]1(C)C=Cc2c(O)c3c(c(CC=C(C)C)c2O1)O[C@]12C(=C[C@@H]4C[C@H]1C(C)(C)O[C@@]2(C/C=C(/C)C(=O)O)C4=O)C3=O [gambogic acid] | −5%
37 | COc1ccc(-c2cc(=O)c3c(O)cc(O)c(-c4cc(-c5cc(=O)c6c(O)cc(OC)cc6o5)ccc4OC)c3o2)cc1 [sciadopitysin] | −4%
38 | O=c1c(O)cc([C@H]2Oc3cc(O)cc(O)c3C[C@H]2O)cc2c([C@H]3Oc4cc(O)cc(O)c4C[C@H]3O)cc(O)c(O)c12 [theaflavin] | −8%
39 | ginkgetin K [genxgetin K] | −7%
40 | tetrahydrogamboic acid | −6%
